Measurements: US20240246955A1, “TROPOMYOSIN RECEPTOR KINASE (TRK) DEGRADATION COMPOUNDS AND METHODS OF USE” (CULLGEN (SHANGHAI), INC., priority 2021, published 2024)

Legend:
[1] = test system: KM12 cells; assay: KM12 cell viability assay (CellTiter-Glo); assay type: cell-based; conditions: for IC50: Homo sapiens, 72 h, KM12 cells, 3 days, CellTiter-Glo; for viability of KM12 cells: 11-point 3-fold serial dilution, 3 days (FIG. 3)
Description: The kinase activity of TRK is known to play important roles in tumors expressing TRK-fusion proteins, as TRK kinase inhibitors compromise cell proliferation, survival, and induce marked clinical responses (Amatu et al., 2016; Drilon et al., 2018; Drilon et al., 2017; Khotskaya et al., 2017). KM12 cells seeded in 96-well plates were treated with heterobifunctional compounds following a 11-point 3-fold serial dilution. Three days after treatment, cell viability was determined using the CellTiter-Glo kit, and normalized to the mean values of 3 replicates of untreated cells. Dose-dependent response was analyzed following the least-squares non-linear regression method using the GraphPad Prism software. Each data point in the figure represents the mean values of three technical replicates ±standard deviation.
KM12 cells seeded in 96-well plates were treated with heterobifunctional compounds following a 11-point 3-fold serial dilution for 3 days.
KM12, TRKA G595R mutated KM12, HEL, and other cells were cultured at 37° C. with 5% CO2 in DMEM or RPMI 1640 Medium supplemented with 10% fetal bovine serum. Cells were authenticated using the short tandem repeat (STR) assays. Mycoplasma test results were negative.
Cells were seeded at a density of 5000 cells per well in 96-well assay plates and treated with test compounds following a 11-point 3-fold serial dilution. Three days later, cell viability was determined using the CellTiter-Glo assay kit (Promega) according to the manufacturer's instructions. The dose-response curves were determined and IC50 values were calculated using the GraphPad Prism software following a nonlinear regression (least squares fit) method.

[2] = target: T1, TPM3-TRKA fusion protein (Homo sapiens, UniProt P04629); assay: TPM3-TRKA degradation in KM12 cells (Western blot); assay type: cell-based; conditions: 16 hours, TRK protein, immunoblot; for inhibition at 0.01 µM: 10 nM; for inhibition at 0.1 µM: 100 nM
T1 construct: TPM3 (N-terminal part of tropomyosin alpha-3, natural fusion partner); endogenous in cells; host or cells: KM12 colon cancer cells; the other entry of the earlier key: TPM3 (P06753, Tropomyosin alpha-3 chain)
T1 sequence (P04629 with tags, fused parts or gaps): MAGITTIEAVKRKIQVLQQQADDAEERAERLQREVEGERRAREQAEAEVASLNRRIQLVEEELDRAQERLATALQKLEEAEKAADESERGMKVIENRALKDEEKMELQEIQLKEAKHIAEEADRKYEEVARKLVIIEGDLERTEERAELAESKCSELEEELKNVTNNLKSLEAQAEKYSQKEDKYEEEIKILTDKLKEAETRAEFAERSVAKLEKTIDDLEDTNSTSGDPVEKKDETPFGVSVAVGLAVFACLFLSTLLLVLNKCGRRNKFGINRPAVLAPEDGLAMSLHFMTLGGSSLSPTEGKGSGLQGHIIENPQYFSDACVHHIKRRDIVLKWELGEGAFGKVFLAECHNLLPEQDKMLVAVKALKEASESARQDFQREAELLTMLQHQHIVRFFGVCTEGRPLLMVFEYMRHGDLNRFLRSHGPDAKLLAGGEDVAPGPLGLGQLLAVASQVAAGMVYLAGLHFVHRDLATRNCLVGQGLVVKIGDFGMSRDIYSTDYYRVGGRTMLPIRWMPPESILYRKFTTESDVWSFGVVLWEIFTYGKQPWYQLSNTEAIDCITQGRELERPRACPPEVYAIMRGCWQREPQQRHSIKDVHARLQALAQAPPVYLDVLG
Description: Specific exemplary heterobifunctional compounds were characterized in KM12 cells. KM12 cells that express TPM3-TRKA fusion protein were treated with 10 nM or 100 nM heterobifunctional compounds disclosed herein or their corresponding warheads/inhibitors for 16 hours. Cells were collected, lysed and subject to immunoblotting using an antibody specific to TRK proteins.
KM12 cells were treated with heterobifunctional compounds at 10 nM or 100 nM for 16 hours.
Cultured cells were washed with cold PBS once and lysed in cold RIPA buffer supplemented with protease inhibitors and phosphatase inhibitors (Beyotime Biotechnology). The solutions were then incubated at 4° C. for 30 minutes with gentle agitation to fully lyse cells. Cell lysates were centrifuged at 13,000 rpm for 10 minutes at 4° C. and pellets were discarded. Total protein concentrations in the lysates were determined by BCA assays (Beyotime Biotechnology). Cell lysates were mixed with Laemmli loading buffer to 1× and heated at 99° C. for 5 min. Proteins were resolved on SDS-PAGE and visualized by chemiluminescence. Images were taken by a ChemiDoc MP Imaging system (Bio-Rad). Protein bands were quantitated using the software provided by Bio-Rad.
The percentage of TRK protein degradation of each compound at 10 nM and 100 nM was determined in KM12 cells as described in Methods. The percentage of degradation of each compound was indicated in the following categories: N/A: data not available; −: no degradation; +: degradation less than 50%; ++: degradation equal or greater than 50% but less than […]; +++: degradation equal or greater than 80%.

| SMILES | IC50 [1] [nM] | viability of KM12 cells [1] | inhibition at 0.01 µM [2] [%] | inhibition at 0.1 µM [2] [%] |
| --- | --- | --- | --- | --- |
| COCCN1C[C@@H](NC(=O)Nc2c(C)c(-c3cnc(N4CCN(C(=O)CCOCCOCCOCCOCCOCCNC(=O)C[C@H](NC(=O)[C@@H]5C[C@@H](O)CN5C(=O)[C@@H](NC(=O)C5(F)CC5)C(C)(C)C)c5ccc(-c6scnc6C)cc5)CC4)nc3)nn2-c2ccccc2)[C@H](c2cccc(F)c2)C1 [CPD-001, (2S,4R)-1-((S)-2-(1-fluorocyclopropane-1-carboxamido)-3,3-dimethylbutanoyl)-N-((S)-22-(4-(5-(5-(3-((3S,4R)-4-(3-fluorophenyl)-1-(2-methoxyethyl)pyrrolidin-3-yl)ureido)-4-methyl-1-phenyl-1H-pyrazol-3-yl)pyrimidin-2-yl)piperazin-1-yl)-1-(4-(4-methylthiazol-5-yl)phenyl)-3,22-dioxo-7,10,13,16,19-pentaoxa-4-azadocosyl)-4-hydroxypyrrolidine-2-carboxamide] | 518 |  |  |  |
| COCCN1C[C@@H](NC(=O)Nc2c(C)c(-c3cnc(N4CCN(C(=O)CCCNc5ccc6c(c5)C(=O)N(C5CCC(=O)NC5=O)C6=O)CC4)nc3)nn2-c2ccccc2)[C@H](c2cccc(F)c2)C1 (stereo partly drawn) [CPD-002, 1-(3-(2-(4-(4-((2-(2,6-dioxopiperidin-3-yl)-1,3-dioxoisoindolin-5-yl)amino)butanoyl)piperazin-1-yl)pyrimidin-5-yl)-4-methyl-1-phenyl-1H-pyrazol-5-yl)-3-((3S,4R)-4-(3-fluorophenyl)-1-(2-methoxyethyl)pyrrolidin-3-yl)urea] | 9.7 | inhibited the viability | > 80 | > 80 |
| COCCN1C[C@@H](NC(=O)Nc2c(C)c(-c3cnc(N4CCN(C(=O)CNc5cccc6c5C(=O)N(C5CCC(=O)NC5=O)C6=O)CC4)nc3)nn2-c2ccccc2)[C@H](c2cccc(F)c2)C1 (stereo partly drawn) [CPD-003, 1-(3-(2-(4-((2-(2,6-dioxopiperidin-3-yl)-1,3-dioxoisoindolin-4-yl)glycyl)piperazin-1-yl)pyrimidin-5-yl)-4-methyl-1-phenyl-1H-pyrazol-5-yl)-3-((3S,4R)-4-(3-fluorophenyl)-1-(2-methoxyethyl)pyrrolidin-3-yl)urea] | 5.1 | inhibited the viability | > 80 | > 80 |
| COCCN1C[C@@H](NC(=O)Nc2c(C)c(-c3cnc(N4CCN(C(=O)CCCNc5cccc6c5C(=O)N(C5CCC(=O)NC5=O)C6=O)CC4)nc3)nn2-c2ccccc2)[C@H](c2cccc(F)c2)C1 (stereo partly drawn) [CPD-004, 1-(3-(2-(4-(4-((2-(2,6-dioxopiperidin-3-yl)-1,3-dioxoisoindolin-4-yl)amino)butanoyl)piperazin-1-yl)pyrimidin-5-yl)-4-methyl-1-phenyl-1H-pyrazol-5-yl)-3-((3S,4R)-4-(3-fluorophenyl)-1-(2-methoxyethyl)pyrrolidin-3-yl)urea] | 25.8 |  | 50 to 800 | 50 to 800 |
| COCCN1C[C@@H](NC(=O)Nc2c(C)c(-c3cnc(N4CCN(C(=O)CCOCCOCCOCCNc5cccc6c5C(=O)N(C5CCC(=O)NC5=O)C6=O)CC4)nc3)nn2-c2ccccc2)[C@H](c2cccc(F)c2)C1 (stereo partly drawn) [CPD-005, 1-(3-(2-(4-(3-(2-(2-(2-((2-(2,6-dioxopiperidin-3-yl)-1,3-dioxoisoindolin-4-yl)amino)ethoxy)ethoxy)ethoxy)propanoyl)piperazin-1-yl)pyrimidin-5-yl)-4-methyl-1-phenyl-1H-pyrazol-5-yl)-3-((3S,4R)-4-(3-fluorophenyl)-1-(2-methoxyethyl)pyrrolidin-3-yl)urea] | 47.3 |  | > 80 | > 80 |
| COCCN1C[C@@H](NC(=O)Nc2c(C)c(-c3cnc(N4CCN(C(=O)CCCCCCCNc5ccc6c(c5)C(=O)N(C5CCC(=O)NC5=O)C6=O)CC4)nc3)nn2-c2ccccc2)[C@H](c2cccc(F)c2)C1 (stereo partly drawn) [CPD-006, 1-(3-(2-(4-(8-((2-(2,6-dioxopiperidin-3-yl)-1,3-dioxoisoindolin-5-yl)amino)octanoyl)piperazin-1-yl)pyrimidin-5-yl)-4-methyl-1-phenyl-1H-pyrazol-5-yl)-3-((3S,4R)-4-(3-fluorophenyl)-1-(2-methoxyethyl)pyrrolidin-3-yl)urea] | 10.3 |  | > 80 | > 80 |
| COCCN1C[C@@H](NC(=O)Nc2c(C)c(-c3cnc(N4CCN(C(=O)CCCCCNc5cccc6c5C(=O)N(C5CCC(=O)NC5=O)C6=O)CC4)nc3)nn2-c2ccccc2)[C@H](c2cccc(F)c2)C1 (stereo partly drawn) [CPD-007, 1-(3-(2-(4-(6-((2-(2,6-dioxopiperidin-3-yl)-1,3-dioxoisoindolin-4-yl)amino)hexanoyl)piperazin-1-yl)pyrimidin-5-yl)-4-methyl-1-phenyl-1H-pyrazol-5-yl)-3-((3S,4R)-4-(3-fluorophenyl)-1-(2-methoxyethyl)pyrrolidin-3-yl)urea] | 10.6 |  | > 80 | > 80 |
| COCCN1C[C@@H](NC(=O)Nc2c(C)c(-c3cnc(N4CCN(C(=O)CCCCCNc5ccc6c(c5)C(=O)N(C5CCC(=O)NC5=O)C6=O)CC4)nc3)nn2-c2ccccc2)[C@H](c2cccc(F)c2)C1 (stereo partly drawn) [CPD-008, 1-(3-(2-(4-(6-((2-(2,6-dioxopiperidin-3-yl)-1,3-dioxoisoindolin-5-yl)amino)hexanoyl)piperazin-1-yl)pyrimidin-5-yl)-4-methyl-1-phenyl-1H-pyrazol-5-yl)-3-((3S,4R)-4-(3-fluorophenyl)-1-(2-methoxyethyl)pyrrolidin-3-yl)urea] | 10.6 |  | > 80 | > 80 |
| COCCN1C[C@@H](NC(=O)Nc2c(C)c(-c3cnc(N4CCN(C(=O)CCCCCCCNc5cccc6c5C(=O)N(C5CCC(=O)NC5=O)C6=O)CC4)nc3)nn2-c2ccccc2)[C@H](c2cccc(F)c2)C1 (stereo partly drawn) [CPD-009, 1-(3-(2-(4-(8-((2-(2,6-dioxopiperidin-3-yl)-1,3-dioxoisoindolin-4-yl)amino)octanoyl)piperazin-1-yl)pyrimidin-5-yl)-4-methyl-1-phenyl-1H-pyrazol-5-yl)-3-((3S,4R)-4-(3-fluorophenyl)-1-(2-methoxyethyl)pyrrolidin-3-yl)urea] | 13.6 |  | > 80 | > 80 |
| COCCN1C[C@@H](NC(=O)Nc2c(C)c(-c3cnc(N4CCN(C(=O)CCOCCOCCOCCOCCNc5cccc6c5C(=O)N(C5CCC(=O)NC5=O)C6=O)CC4)nc3)nn2-c2ccccc2)[C@H](c2cccc(F)c2)C1 (stereo partly drawn) [CPD-010, 1-(3-(2-(4-(1-((2-(2,6-dioxopiperidin-3-yl)-1,3-dioxoisoindolin-4-yl)amino)-3,6,9,12-tetraoxapentadecan-15-oyl)piperazin-1-yl)pyrimidin-5-yl)-4-methyl-1-phenyl-1H-pyrazol-5-yl)-3-((3S,4R)-4-(3-fluorophenyl)-1-(2-methoxyethyl)pyrrolidin-3-yl)urea] | 86.1 |  | 50 to 800 | > 80 |
